Data: patent US20220389061A1, “IMMUNOMODULATORS” (priority 2019, published 2022)
Where two headings read alike, the source gives them in different places. Starred links: 1 amine or outer side, 2 acyl side, 3 side chain; linkers in the order of their positions; H or OH if unused. Positions of bridges follow the written chain, without caps; N, C: chain ends. Non-standard residues stand in square brackets, D forms with d. Residues, ends and D or L forms follow the SMILES beside them. Groups on a side chain read outwards from the residue. *: point of attachment. Trp(1-CH2CO2Me) = COC(=O)Cn1cc(C[C@H](N)C(=O)O)c2ccccc21; Trp(1-CH2COOH) = N[C@@H](Cc1cn(CC(=O)O)c2ccccc12)C(=O)O; X57 = O=C([C@H](CN/C(=N/c1ccccc1)c1ccccc1)N[*:1])[*:2]; Benzoyl(2-(4-MeOPh)) = COc1ccc(-c2ccccc2C(=O)*)cc1; X79 = CCn1c2ccccc2c2cc(NC(=S)*)ccc21; X1 = S=C(Nc1ccc2c(c1)Cc1ccccc1-2)*; X75 = S=C(Nc1ccc(C2CC2)c2ccccc12)*; Hyp = O=C(O)[C@@H]1C[C@@H](O)CN1; pNA = O=[N+]([O-])c1ccc(N*)cc1; NMeNle = CCCC[C@H](NC)C(=O)O; X16 = S=C(Nc1ccc2c(c1)OCO2)*; X22 = c1ccc(N(c2ccccc2)*)cc1; X4 = S=C(Nc1ccc2c(c1)OCCO2)*; X92 = FC(F)(F)c1cc(Cl)ccc1N*; X2 = c1ccc(-c2ccccc2N*)cc1; X93 = c1cc2c(c(N*)c1)CCCC2; X6 = CCCCCCCOc1ccc(N*)cc1; NMeA = CN[C@@H](C)C(=O)O; Dab = NCC[C@H](N)C(=O)O; Dap = NC[C@H](N)C(=O)O; CO = O=C([*:1])[*:2]

Target: T1, PD-1/PD-L1 (Homo sapiens, UniProt Q9NZQ7)
T1 construct: TVMV protease site linker (C); made in house; host or cells: HEK293T cells
Experiment: PD-1/PD-L1 Homogenous Time-Resolved Fluorescence (HTRF) binding assay
Method in brief: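 Compounds preincubated 15 min with PD-L1-His (10 nM final), then PD-1-Ig (20 nM final) added for 15 min in dPBS with 0.1% BSA, 0.05% Tween-20. Detection by Eu-cryptate anti-Ig (1 nM) and APC anti-His (20 nM) HTRF.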

[1] = PD-L1-His 10 nM pre-incubated with inhibitor, PD-1-Ig 20 nM, read-out: HTRF IC50

T1 sequence (Q9NZQ7 18-239): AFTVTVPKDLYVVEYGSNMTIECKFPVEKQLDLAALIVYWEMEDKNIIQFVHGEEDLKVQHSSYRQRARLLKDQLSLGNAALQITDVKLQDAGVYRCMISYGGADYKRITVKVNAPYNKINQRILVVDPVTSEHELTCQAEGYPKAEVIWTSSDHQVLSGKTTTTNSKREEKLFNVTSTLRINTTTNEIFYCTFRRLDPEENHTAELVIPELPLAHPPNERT

IC50 [1] | SMILES | other results
3.1 nM | CCCC[C@H]1C(=O)N(C)[C@@H](CCCC)C(=O)N[C@@H](CC(C)C)C(=O)N[C@H](C(=O)NCC(N)=O)CSCC(=O)N[C@@H](Cc2ccc(O)cc2)C(=O)N(C)[C@@H](C)C(=O)N[C@@H](CC(N)=O)C(=O)N2CCC[C@H]2C(=O)N[C@@H](CNC(=S)Nc2ccc3c(c2)OCCO3)C(=O)N[C@@H](CC(C)C)C(=O)N2C[C@H](O)C[C@H]2C(=O)N[C@@H](Cc2c[nH]c3ccccc23)C(=O)N[C@@H](CCNC(=S)Nc2ccc3c(c2)OCCO3)C(=O)N[C@@H](Cc2cn(CC(=O)O)c3ccccc23)C(=O)N1C [Example 3069] ({CH2CO}-Y[NMeA]NP[Dap](X4)L[Hyp]W[Dab](X4)[Trp(1-CH2COOH)][NMeNle][NMeNle]LCG-NH2; thioether N-14) | –
9.7 nM | CCCC[C@H]1C(=O)N(C)[C@@H](CCCC)C(=O)N[C@@H](CC(C)C)C(=O)N[C@H](C(=O)NCC(N)=O)CSCC(=O)N[C@@H](Cc2ccc(O)cc2)C(=O)N(C)[C@@H](C)C(=O)N[C@@H](CC(N)=O)C(=O)N2CCC[C@H]2C(=O)N[C@@H](CNC(=O)Nc2ccc(Cl)cc2C(F)(F)F)C(=O)N[C@@H](CC(C)C)C(=O)N2C[C@H](O)C[C@H]2C(=O)N[C@@H](Cc2c[nH]c3ccccc23)C(=O)N[C@@H](CCNC(=O)Nc2ccc(Cl)cc2C(F)(F)F)C(=O)N[C@@H](Cc2cn(CC(=O)O)c3ccccc23)C(=O)N1C [Example 1138] ({CH2CO}-Y[NMeA]NP[Dap]([CO-X92])L[Hyp]W[Dab]([CO-X92])[Trp(1-CH2COOH)][NMeNle][NMeNle]LCG-NH2; thioether N-14) | –
– | CCCC[C@H]1C(=O)N(C)[C@@H](CCCC)C(=O)N[C@@H](CC(C)C)C(=O)N[C@H](C(=O)NCC(N)=O)CSCC(=O)N[C@@H](Cc2ccc(O)cc2)C(=O)N(C)[C@@H](C)C(=O)N[C@@H](CC(N)=O)C(=O)N2CCC[C@H]2C(=O)N[C@@H](CNC(=O)Nc2ccccc2-c2ccccc2)C(=O)N[C@@H](CC(C)C)C(=O)N2C[C@H](O)C[C@H]2C(=O)N[C@@H](Cc2c[nH]c3ccccc23)C(=O)N[C@@H](CCNC(=O)Nc2ccccc2-c2ccccc2)C(=O)N[C@@H](Cc2cn(CC(=O)O)c3ccccc23)C(=O)N1C [Example 1014] ({CH2CO}-Y[NMeA]NP[Dap]([CO-X2])L[Hyp]W[Dab]([CO-X2])[Trp(1-CH2COOH)][NMeNle][NMeNle]LCG-NH2; thioether N-14) | IC50 (read-out: HTRF IC50, PD-L1-His 10 nM pre-incubated with inhibitor, PD-1-Ig 20 nM): 0.7 nM
– | CCCC[C@H]1C(=O)N(C)[C@@H](CCCC)C(=O)N[C@@H](CC(C)C)C(=O)N[C@H](C(=O)NCC(N)=O)CSCC(=O)N[C@@H](Cc2ccc(O)cc2)C(=O)N(C)[C@@H](C)C(=O)N[C@@H](CC(N)=O)C(=O)N2CCC[C@H]2C(=O)N[C@@H](CNC(=O)Nc2ccc([N+](=O)[O-])cc2)C(=O)N[C@@H](CC(C)C)C(=O)N2C[C@H](O)C[C@H]2C(=O)N[C@@H](Cc2c[nH]c3ccccc23)C(=O)N[C@@H](CCN)C(=O)N[C@@H](Cc2cn(CC(=O)O)c3ccccc23)C(=O)N1C [Example 1132] ({CH2CO}-Y[NMeA]NP[Dap]([CO-pNA])L[Hyp]W[Dab][Trp(1-CH2COOH)][NMeNle][NMeNle]LCG-NH2; thioether N-14) | IC50: 3.7 nM
3.8 nM | CCCC[C@H]1C(=O)N(C)[C@@H](CCCC)C(=O)N[C@@H](CC(C)C)C(=O)N[C@H](C(=O)NCC(N)=O)CSCC(=O)N[C@@H](Cc2ccc(O)cc2)C(=O)N(C)[C@@H](C)C(=O)N[C@@H](CC(N)=O)C(=O)N2CCC[C@H]2C(=O)N[C@@H](CNC(=S)Nc2ccc3c(c2)c2ccccc2n3CC)C(=O)N[C@@H](CC(C)C)C(=O)N2C[C@H](O)C[C@H]2C(=O)N[C@@H](Cc2c[nH]c3ccccc23)C(=O)N[C@@H](CCN)C(=O)N[C@@H](Cc2cn(CC(=O)O)c3ccccc23)C(=O)N1C [Example 2014] ({CH2CO}-Y[NMeA]NP[Dap](X79)L[Hyp]W[Dab][Trp(1-CH2COOH)][NMeNle][NMeNle]LCG-NH2; thioether N-14) | –
– | CCCC[C@H]1C(=O)N(C)[C@@H](CCCC)C(=O)N[C@@H](CC(C)C)C(=O)N[C@H](C(=O)NCC(N)=O)CSCC(=O)N[C@@H](Cc2ccc(O)cc2)C(=O)N(C)[C@@H](C)C(=O)N[C@@H](CC(N)=O)C(=O)N2CCC[C@H]2C(=O)N[C@@H](CNC(=O)Nc2cccc3c2CCCC3)C(=O)N[C@@H](CC(C)C)C(=O)N2C[C@H](O)C[C@H]2C(=O)N[C@@H](Cc2c[nH]c3ccccc23)C(=O)N[C@@H](CCNC(=O)Nc2cccc3c2CCCC3)C(=O)N[C@@H](Cc2cn(CC(=O)O)c3ccccc23)C(=O)N1C [Example 3015] ({CH2CO}-Y[NMeA]NP[Dap]([CO-X93])L[Hyp]W[Dab]([CO-X93])[Trp(1-CH2COOH)][NMeNle][NMeNle]LCG-NH2; thioether N-14) | IC50: 0.7 nM
9.98 nM | CCCC[C@H]1C(=O)N(C)[C@@H](CCCC)C(=O)N[C@@H](CC(C)C)C(=O)N[C@H](C(=O)NCC(N)=O)CSCC(=O)N[C@@H](Cc2ccc(O)cc2)C(=O)N(C)[C@@H](C)C(=O)N[C@@H](CC(N)=O)C(=O)N2CCC[C@H]2C(=O)N[C@@H](CN/C(=N/c2ccccc2)c2ccccc2)C(=O)N[C@@H](CC(C)C)C(=O)N2C[C@H](O)C[C@H]2C(=O)N[C@@H](Cc2c[nH]c3ccccc23)C(=O)N[C@@H](CCN)C(=O)N[C@@H](Cc2cn(CC(=O)O)c3ccccc23)C(=O)N1C [Example 1018] ({CH2CO}-Y[NMeA]NP[X57]L[Hyp]W[Dab][Trp(1-CH2COOH)][NMeNle][NMeNle]LCG-NH2; thioether N-14) | –
2.7 nM | CCCC[C@H]1C(=O)N(C)[C@@H](CCCC)C(=O)N[C@@H](CC(C)C)C(=O)N[C@H](C(=O)NCC(N)=O)CSCC(=O)N[C@@H](Cc2ccc(O)cc2)C(=O)N(C)[C@@H](C)C(=O)N[C@@H](CC(N)=O)C(=O)N2CCC[C@H]2C(=O)N[C@@H](CNC(=S)Nc2ccc3c(c2)OCO3)C(=O)N[C@@H](CC(C)C)C(=O)N2C[C@H](O)C[C@H]2C(=O)N[C@@H](Cc2c[nH]c3ccccc23)C(=O)N[C@@H](CCNC(=S)Nc2ccc3c(c2)OCO3)C(=O)N[C@@H](Cc2cn(CC(=O)O)c3ccccc23)C(=O)N1C [Example 3050] ({CH2CO}-Y[NMeA]NP[Dap](X16)L[Hyp]W[Dab](X16)[Trp(1-CH2COOH)][NMeNle][NMeNle]LCG-NH2; thioether N-14) | –
15.2 nM | CCCC[C@H]1C(=O)N(C)[C@@H](CCCC)C(=O)N[C@@H](CC(C)C)C(=O)N[C@H](C(=O)NCC(N)=O)CSCC(=O)N[C@@H](Cc2ccc(O)cc2)C(=O)N(C)[C@@H](C)C(=O)N[C@@H](CC(N)=O)C(=O)N2CCC[C@H]2C(=O)N[C@@H](CNC(=S)Nc2ccc3c(c2)Cc2ccccc2-3)C(=O)N[C@@H](CC(C)C)C(=O)N2C[C@H](O)C[C@H]2C(=O)N[C@@H](Cc2c[nH]c3ccccc23)C(=O)N[C@@H](CCNC(=S)Nc2ccc3c(c2)Cc2ccccc2-3)C(=O)N[C@@H](Cc2cn(CC(=O)O)c3ccccc23)C(=O)N1C [Example 2012] ({CH2CO}-Y[NMeA]NP[Dap](X1)L[Hyp]W[Dab](X1)[Trp(1-CH2COOH)][NMeNle][NMeNle]LCG-NH2; thioether N-14) | –
3 nM | CCCC[C@H]1C(=O)N(C)[C@@H](CCCC)C(=O)N[C@@H](CC(C)C)C(=O)N[C@H](C(=O)NCC(N)=O)CSCC(=O)N[C@@H](Cc2ccc(O)cc2)C(=O)N(C)[C@@H](C)C(=O)N[C@@H](CC(N)=O)C(=O)N2CCC[C@H]2C(=O)N[C@@H](CNC(=S)Nc2ccc(C3CC3)c3ccccc23)C(=O)N[C@@H](CC(C)C)C(=O)N2C[C@H](O)C[C@H]2C(=O)N[C@@H](Cc2c[nH]c3ccccc23)C(=O)N[C@@H](CCN)C(=O)N[C@@H](Cc2cn(CC(=O)O)c3ccccc23)C(=O)N1C [Example 3044] ({CH2CO}-Y[NMeA]NP[Dap](X75)L[Hyp]W[Dab][Trp(1-CH2COOH)][NMeNle][NMeNle]LCG-NH2; thioether N-14) | –

SMILES | IC50 [1] | other results
CCCC[C@H]1C(=O)N(C)[C@@H](CCCC)C(=O)N[C@@H](CC(C)C)C(=O)N[C@H](C(=O)NCC(N)=O)CSCC(=O)N[C@@H](Cc2ccc(OC)cc2)C(=O)N(C)[C@@H](C)C(=O)N[C@@H](CC(N)=O)C(=O)N2CCC[C@H]2C(=O)N[C@@H](CNC(=O)c2ccccc2-c2ccc(OC)cc2)C(=O)N[C@@H](CC(C)C)C(=O)N2C[C@H](O)C[C@H]2C(=O)N[C@@H](Cc2c[nH]c3ccccc23)C(=O)N[C@@H](CCNC(=O)c2ccccc2-c2ccc(OC)cc2)C(=O)N[C@@H](Cc2cn(CC(=O)OC)c3ccccc23)C(=O)N1C [Example 1075] ({CH2CO}-Y(Me)[NMeA]NP[Dap](Benzoyl(2-(4-MeOPh)))L[Hyp]W[Dab](Benzoyl(2-(4-MeOPh)))[Trp(1-CH2CO2Me)][NMeNle][NMeNle]LCG-NH2; thioether N-14) | 91 nM | –
CCCC[C@H]1C(=O)N(C)[C@@H](CCCC)C(=O)N[C@@H](CC(C)C)C(=O)N[C@H](C(=O)NCC(N)=O)CSCC(=O)N[C@@H](Cc2ccc(O)cc2)C(=O)N(C)[C@@H](C)C(=O)N[C@@H](CC(N)=O)C(=O)N2CCC[C@H]2C(=O)N[C@@H](CNC(=O)N(c2ccccc2)c2ccccc2)C(=O)N[C@@H](CC(C)C)C(=O)N2C[C@H](O)C[C@H]2C(=O)N[C@@H](Cc2c[nH]c3ccccc23)C(=O)N[C@@H](CCNC(=O)N(c2ccccc2)c2ccccc2)C(=O)N[C@@H](Cc2cn(CC(=O)OC)c3ccccc23)C(=O)N1C [Example 1004] ({CH2CO}-Y[NMeA]NP[Dap]([CO-X22])L[Hyp]W[Dab]([CO-X22])[Trp(1-CH2CO2Me)][NMeNle][NMeNle]LCG-NH2; thioether N-14) | 23 nM | –
CCCCCCCOc1ccc(NC(=O)NC[C@@H]2NC(=O)[C@@H]3CCCN3C(=O)[C@H](CC(N)=O)NC(=O)[C@H](C)N(C)C(=O)[C@H](Cc3ccc(O)cc3)NC(=O)CSC[C@@H](C(=O)NCC(N)=O)NC(=O)[C@H](CC(C)C)NC(=O)[C@H](CCCC)N(C)C(=O)[C@H](CCCC)N(C)C(=O)[C@H](Cc3cn(CC(=O)O)c4ccccc34)NC(=O)[C@H](CCN)NC(=O)[C@H](Cc3c[nH]c4ccccc34)NC(=O)[C@@H]3C[C@@H](O)CN3C(=O)[C@H](CC(C)C)NC2=O)cc1 [Example 1099] ({CH2CO}-Y[NMeA]NP[Dap]([CO-X6])L[Hyp]W[Dab][Trp(1-CH2COOH)][NMeNle][NMeNle]LCG-NH2; thioether N-14) | 2.6 nM | –
